Results taken from patent US20060147936A1, “Use of a gene mutation in the human gnas gene for predicting risks of diseases, courses of the disease and for predicting the response to disease therapies” (priority 2003, published 2006).

Tests used:
human fat cells = test: isoprenaline-stimulated lipolysis (glycerol release) in human fat cells ex vivo; format: cell-based; details: compared with other genotypes
Text: For this purpose, human fat cells ex vivo were stimulated with isoprenaline and lipolysis quantified on the basis of glycerol release (Hauner H et al. Effects of the G protein beta3 subunit 825T allele on adipogenesis and lipolysis in cultured human preadipocytes and adipocytes. Horm Metab Res. 2002;34(9):475-80). […] This agrees with the observation of increased expression of Gαs protein in this genotype.
In fat cells from humans with the GG genotype, there is increased lipolysis, measured as the release of glycerol. […] This also agrees with the observation that persons with the GG genotype on a low calorie diet lose more weight than persons with the AA/AG genotype.

[1] = metformin therapy for 12 months in women with PCOS: HOMA-IR index and BMI; format: in vivo, human; details: metformin 12 months
Protocol: Polycystic ovarian syndrome (PCOS) is a frequent endocrine disease, characterized by chronic anovulation and hyperandrogenism. About 5% of all premenopausal women are affected by this. […] Treatment of PCOS patients with metformin improves fertility and androgen levels, reduces insulin resistance and facilitates weight reduction. For this purpose, women with the PCOS syndrome were treated with metformin for 12 months. Changes in the Body Mass Index (BMI) and insulin resistance according to the HOMA-IR method (homeostasis model assessment for insulin resistance) were investigated, together with the GNAS genotypes of the T393C polymorphism. FIG. 22A shoes the influence of therapy with an oral antidiabetic(metformin) on insulin resistance(A) and Body Mass Index (BMI; B) in women with polycystic ovaries. As already mentioned, therapy was carried out with metformin for 12 months. The change in the HOMA-IR index is given as a measure of the insulin resistance. It is evident that the most marked improvement of the HOMA-IR index is in individuals with the CC genotype(2.9), in contrast to 2.2 with the TC genotype and only 0.9 with the TT genotype. […] The changes in the BMI (a measure of body fat) behave similarly. […] This includes not only metformin, but also the so-called glitazones, tolbutamide, sulfonylureas and their derivatives, glinides and arcabose.

[2] = placebo-controlled, double blind study of sibutramine in obese patients: loss of weight after one year; format: in vivo, human; details: 15 mg/day for one year
Protocol: (§1) In the context of a placebo-controlled, double blind study, obese patients were given 15 mg sibutramine/day for one year. Sibutramine is a centrally active re-uptake inhibitor of noradrenaline and serotonin, both of which act through G protein-coupled receptors. Sibutramine (trade-name: Reductil, Meridia) enhances the feeling of satiety and makes it easier to lose weight in the context of structured measures to reduce weight (increase in physical activity, reduction in calorie intake). The outcome parameter of the study was the weight loss after one year.
The placebo or sibutramine (15 mg/day) were administered for one year. The loss of weight after one year (%) is illustrated, in dependence on the GNAS T393C genotype.
In addition, the study population was genotyped with respect to the GNAS G(-1211)A polymorphism (FIG. 19B). […] Placebo or sibutramine (15 mg/day) was administered for one year. The loss of weight (%) after one year is illustrated in dependence on the GNAS G(1211)A genotype. In the placebo group, patients with GNAS (-1211) GG genotype clearly could lose weight better(7.3%) than those with the AA- and AG genotype (1.8 and 3.1%, respectively). […] Thus therapy with sibutramine is predominantly indicated for patients with AG/AA genotype, whereas patients with CC genotype can also lose weight well under placebo. The time courses of the loss of weight for each genotype of the 393CT393C polymorphism (sibutramine versus placebo) are shown in FIGS. 20A, 20B and 20C. FIGS. 20 A, B and C illustrate the individual time courses for the changes in weight with placebo or sibutramine for the GNAS 393 CC genotype (A), the TC genotype (B) and the TT genotype (C). It is evident that only the TC and TT genotypes benefit from therapy with 15 mg sibutramine daily, whereas CC genotypes can lose weight without drug.

[3] = cardiovascular side-effects (heart rate, blood pressure) under therapy with sibutramine versus placebo; format: in vivo, human
Protocol: as §1
The connection between gene modifications in the GNAS gene and the change in heart rate was examined after treatment with sibutramine versus placebo (FIG. 25). The effects are illustrated as they depend on the T393C polymorphism. […] FIG. 26 makes clear the possible use of a gene modification in the human GNAS gene to predict the increase in diastolic blood pressure during treatment with sibutramine.
FIG. 27 illustrates once again the possible use of a gene modification in the human GNAS gene to predict an increase in the heart rate during therapy with sibutramine. This illustrates the effects, in dependence on genotypes of the G(-1211)A polymorphism. […] Finally, FIG. 28 illustrates the possibility of an additional use of a gene modification in the human GNAS gene in the prediction of an increase in systolic blood pressure during therapy with sibutramine.

CC(C)NCC(O)c1ccc(O)c(O)c1 (stereo not shown) [isoprenaline]
stimulation of lipolysis (glycerol release) (human fat cells; fat cells from humans with GNAS G(-1211)A GG genotype): most marked stimulation of lipolysis
stimulation of lipolysis (glycerol release) (human fat cells; fat cells from individuals with GNAS 393 TT genotype): most marked stimulation of lipolysis

CN(C)C(=N)N=C(N)N [metformin]
decrease in the BMI ([1]; GNAS T393C CC genotype): 15.8%
improvement of the HOMA-IR index (insulin resistance) ([1]; GNAS T393C CC genotype): 2.9
decrease in the BMI ([1]; GNAS T393C TC genotype): 4.8%
improvement of the HOMA-IR index (insulin resistance) ([1]; GNAS T393C TC genotype): 2.2
decrease in the BMI ([1]; GNAS T393C TT genotype): 1.5%
improvement of the HOMA-IR index (insulin resistance) ([1]; GNAS T393C TT genotype): 0.9

CC(C)CC(N(C)C)C1(c2ccc(Cl)cc2)CCC1 (stereo not shown) [sibutramine]
loss of weight after one year, sibutramine vs placebo ([2]; GNAS G(-1211)A AG and AA genotype): marked (p=0.027) increase in the loss of weight
loss of weight after one year, sibutramine vs placebo ([2]; GNAS G(-1211)A GG genotype): favorable drug effect was not observed
loss of weight after one year, sibutramine vs placebo ([2]; GNAS T393C CC genotype): favorable drug effect was not observed
loss of weight after one year, sibutramine vs placebo ([2]; GNAS T393C TC and TT genotype): clear (p=0.027) increase in the loss of weight
change in diastolic blood pressure during therapy with sibutramine ([3]; GNAS 393 CC and TC genotypes): does not occur
change in diastolic blood pressure during therapy with sibutramine ([3]; GNAS 393 TT genotype): significant increase
change in systolic blood pressure under therapy with sibutramine ([3]; GNAS -1211 GG genotype): lack of reduction of the systolic blood pressure
change in heart rate (sibutramine versus placebo) ([3]; GNAS G(-1211)A GG genotype compared with AA/AG genotypes): significantly greater change in heart rate
increase in heart rate with sibutramine versus placebo ([3]; GNAS T393C CC genotype): This effect does not occur
increase in heart rate with sibutramine versus placebo ([3]; GNAS T393C TC genotype): 10 beats per minute
increase in heart rate with sibutramine versus placebo ([3]; GNAS T393C TT genotype): 20 beats per minute
